Results as given in US20210078985A1, “COMPOUND, PREPARATION METHOD THEREFOR, AND USE THEREOF” (MEDSPRING INTERNATIONAL LIMITED, priority 2018, published 2021).
In brackets after ≈: the same amount, converted by molar mass. Where two headings read alike, the source gives them in different places.

Key:
Caco-2 cells = assay: In vitro membrane permeability test (Caco-2 monolayer)
Description: Caco-2 cell model is a human colonic adenocarcinoma cell line having a structure and function similar to differentiated intestinal epithelial cells. It has microvilli and other structures, and contains enzyme system related to intestinal brush border epithelium.
The cryopreserved Caco-2 cells were thawed in 37° C. water bath. After resuscitation, the cells were added into DMEM medium containing 10% FBS, and cultured in an incubator with 37° C., 5% CO2 and 90% relative humidity. The culture medium was changed every other day. After 1-2 days of growth, the cells were digested with 0.25% trypsin-EDTA (0.2%) mixed digestive solution at 37° C. and passaged in a certain proportion. The cell generation used in the experiments was 40-60 passages.
When cells reached 80% confluency, they were digested and suspended in complete medium and seeded on Millicell plate at 1×10^6 cells·ml^−1. After that, the culture medium was changed once every 2 days and after 1 week, was changed once every 1 day. After 5 days of culture, the resistance value reaches plateau (>200 Ω·cm^2), which can be then used for membrane permeability experiment.
The compound was diluted to 5 μmol·L^−1 by HBSS. Before experiments, the culture medium in each well was discarded, washed twice with HBSS solution at 37° C., and then incubated in a 37° C. incubator. […] The emission wavelength was set at 430 nm and the excitation wavelength was set at 530 nm.
Before experiments, Millicell inoculated with cells was soaked in HBSS solution at 37° C. for an appropriate time period, and the Millicell was washed slightly to remove the attachment on the cell surface. The permeability from cavity surface to basal surface: 0.35 ml HBSS solution containing drug was added to the top side (AP) and 1.2 ml blank HBSS solution was added to the bottom side (BL). The Millicell was incubated while shaking at 50 r·min^−1 at 37° C., a 50 μL sample was taken in the lower layer at 0, 30, 90 and 120 min, and a same volume of blank HBSS solution as added back. 3 holes were repeated for each concentration. 50 μL internal standard solution and 350 μL ethyl acetate were added to the sample, which was shaken and mixed, centrifuged at 12000 rpm for 5 min. 300 μL of supernatant was taken out, dried by evaporation, and re-dissolved in 50 μL acetonitrile. 10 μL sample was taken out for testing. For the permeability from the base surface to the cavity surface, the drug was added to the bottom side (BL), and the blank HBSS solution was added to the top side (AP). The following steps are the same as the permeability test operation from the cavity surface to the base surface.
The apparent permeability coefficient (Papp) of drugs reflects the ability of drugs to pass through monolayer cells and the speed and degree of drug absorption. It can be calculated by the following formula: […]
Herein, ΔQ is the amount of drug penetration during the time period of Δt, A is the cell surface area, which is the area of supporting membrane (0.6 cm^2) in this model, and Co is the initial concentration. The unit of Papp is usually expressed in cm/h (cm·h^−1) or cm/s (cm·s^−1).
LC/MS was used for testing. The standard curve ([…]-10000 nM) was used to quantify the concentration of each sample.

[1] = Description: Solubility of compounds was determined according to the method established in the general instructions of Part II of Pharmacopoeia 2010 edition. […] The dissolution was observed within 30 minutes.
(§1) The dissolution was then observed within 30 minutes.
as §1

[2] = biological target: T1, CHO membranes expressing CCR4 (Homo sapiens, UniProt P51679); assay: In vitro CCR4 antagonistic activity, competitive [35S]-GTPγS test; type: biochemical
T1 construct: expressed in transfected cells; host or cells: CHO cell membranes
T1 sequence (P51679 1-360): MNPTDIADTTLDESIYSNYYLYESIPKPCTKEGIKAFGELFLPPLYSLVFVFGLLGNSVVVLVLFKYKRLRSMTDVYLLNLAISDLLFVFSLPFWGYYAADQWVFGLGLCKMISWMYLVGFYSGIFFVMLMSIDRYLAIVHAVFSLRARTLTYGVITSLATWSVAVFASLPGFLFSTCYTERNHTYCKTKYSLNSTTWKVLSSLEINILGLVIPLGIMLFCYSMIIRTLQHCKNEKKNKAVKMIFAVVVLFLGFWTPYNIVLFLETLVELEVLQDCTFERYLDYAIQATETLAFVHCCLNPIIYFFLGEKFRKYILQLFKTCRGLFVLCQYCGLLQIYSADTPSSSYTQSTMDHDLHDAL
Description: The potency of antagonists was tested by a competitive test of [35S]-GTPγS. Briefly, CHO membranes expressing CCR4 were homogenized through a 23 G needle. These membranes were then attached to WGA-coated Leadseeker SPA beads in a testing buffer (20 mM HEPES, 10 mM MgCl2, 100 mM NaCl, 0.05% BSA, 40 ug/ml saponin, adjusted to pH 7.4 with KOH 5M) to produce 3 μg/well final […] (FAC) membrane and 250 μg/well FAC bead solution. After 60 minutes of pre-coupling on ice, GDP was added to obtain 4.4 uM FAC. Then [35S]-GTPS, which was prepared in the testing buffer, was added into the bead/membrane solution to thereby obtain 0.33 nM FAC. […] The suspension of beads/membranes/[35S]-GTPγS/agonist was distributed into a white Greiner polypropylene 384-pore plate (45 μL/well), which contained 0.5 μl of compound. The final testing solution (45.5 μL) was sealed, centrifuged and incubated at room temperature for 3-6 hours. Then, the plate was read with Viewlux and the luminescence was plotted as the percentage of the maximum inhibitory response induced by IC100 standard antagonist.

For `COc1cccc2c1c(NS(=O)(=O)c1ccc(Cl)s1)nn2Cc1cccc(CNC(=O)C(C)(C)O)c1` [Compound 6, N-[(3-{[3-{[(5-chloro-2-thienyl)sulfonyl]amino}-4-(methoxy)-1H-indazole-1-yl]methyl}phenyl)methyl]-2-hydroxy-2-methylpropionamide, reference compound], the “absorption classification from Papp” value (Caco-2 cells; Caco-2) was “difficult-to-absorb compound”, the “Papp (apparent permeability coefficient)” value (Caco-2 cells; human, Caco-2) was 0.13 ×10^−6 and the “Solubility in water under 25° C. ± 2° C.” value [1] was 0.02 mg/mL (≈ 36.4 µM).

With `COc1cccc2c1c(NS(=O)(=O)c1ccc(Cl)s1)nn2Cc1cccc(CNC(=O)C(C)(C)O)c1.[Na]` [Compound of formula II, N-[(3-{[3-{[(5-chloro-2-thienyl)sulfonyl]amino}-4-(methoxy)-1H-indazole-1-yl]methyl}phenyl)methyl]-2-hydroxy-2-methylpropionamide sodium] the “absorption classification from Papp” value (Caco-2 cells; Caco-2, Papp>2×10^−6 = good-absorption drug) was “easy-to-absorb compounds”, the “Papp (apparent permeability coefficient)” value (Caco-2 cells; Caco-2 monolayer, direction not given, sodium) was 68.82 ×10^−6 and the “Solubility in water under 25° C. ± 2° C.” value ([1]; water, 25° C. ± 2° C., visual dissolution within 30 minutes) was 500 mg/mL. The “IC50, times higher than that of compound 6” value ([2]; relative to compound 6, same experimental conditions) was 6 times.

In the case of `COc1cccc2c1c(NS(=O)(=O)c1ccc(Cl)s1)nn2Cc1cccc(CNC(=O)C(C)(C)O)c1` [Compound of formula III, N-[(3-{[3-{[(5-chloro-2-thienyl)sulfonyl]amino}-4-(methoxy)-1H-indazole-1-yl]methyl}phenyl)methyl]-2-hydroxy-2-methylpropionamide potassium], the “absorption classification from Papp” value (Caco-2 cells; Caco-2) is reported as “easy-to-absorb compounds”, the “permeability, times higher than compound 6” value (Caco-2 cells; Caco-2) is reported as 530-780 times and the “Solubility in water under 25° C. ± 2° C.” value [1] is reported as 40 mg/mL. For the same compound, the “solubility, times higher than that of compound 6” value [1] was 2000-25000 times and the “IC50, times higher than that of compound 6” value [2] was 210 times.
